Values joined by “and” are separate entries in the source; they are usually repeats but may differ in a detail not shown here. Equal values may be shown once. One block for each compound: values may come before it.
Assays:
[1] = tested on: rat tail blood vessels; test: Distribution within the tail: frozen sections, anti-CD34 staining, CLSM; assay type: in vivo
Experimental: The slices were imaged by CLSM. The intensity of the Rhd fluorescence was calculated from images using ImageJ.

[2] = tested on: rat tail; test: In vivo imaging (IVIS) of Rhd fluorescence retention in rat tail after tourniquet release; conditions: one hour after tourniquet release, n=4
Experimental: For in vivo imaging, the same IVRA procedures were performed, and 0.4 mL of: (i) free Rhd; Rhd-labeled micellar composition comprising bupivacaine; and Rhd-labeled liposomal composition comprising bupivacaine was injected into the tails of rats (n=4) after fastening the tourniquet. Images were taken with an In Vivo Imaging System (PerkinElmer Inc., USA) before releasing the tourniquet, and the signal intensity in those images was considered to be 100%. […] The Rhd signals of each composition were quantified at each time point, and normalized to the intensity before tourniquet release.

[3] = tested on: HUVECs; test: Cytotoxicity in HUVECs (MTS cell viability); assay type: cell-based, human; conditions: 0.1 mg/mL free bupivacaine, 24 hours
Experimental: HUVECs were purchased from ATCC. The cell line was authenticated by the suppliers and passaged in the laboratory for fewer than 3 months after resuscitation. HUVECs were maintained in a 37° C./5% CO2 humidified chamber in Endothelial Cell Growth Medium (EBM-2) (Lonza, USA). When the cells grew to 80% confluence, the cell studies were performed. For cytotoxicity studies, HUVECs were seeded in 96-well plates and incubated with various drug formulations (free bupivacaine, micellar composition comprising bupivacaine, and liposomal composition comprising bupivacaine) for 24 hours. Cell viability was evaluated by CellTiter 96® AQueous One Solution Cell Proliferation Assay (MTS) (Promega, USA) according to suppliers' instructions. The absorbance at 490 nm wavelength was detected with a microplate reader ([…]x, BioTek®, USA). Untreated cells served as a control. Results were shown as the average cell viability [(OD treat OD blank)/(OD control OD blank)×100%] of quintuplicate wells. […] The cells were washed three times with 3 mL of fresh medium and the washing medium was added to the collected incubated medium, the final volume of the collected medium was adjusted to 12 mL and the fluorescence intensity of each medium was measured by fluorescence spectrophotometer (Cary Eclipse, Agilent, USA). […]

[4] = tested on: rat tail; test: Rat tail IVRA (Bier block) assessed by tail-flick test; assay type: in vivo
Experimental: In a typical IVRA procedures, the rats were anesthetized with isoflurane-oxygen. The tail vein was cannulated with a 24-gauge IV catheter, which was placed in the distal third of the tail and filled with heparinized saline (BD, USA). The tail was exsanguinated by wrapping it with a rubber strip. An elastic tourniquet was tightly applied proximal to the rubber strip and then the rubber strip was removed. Next, 0.4 mL of formulation was injected by a microinjector (1 mL) through the IV catheter. After releasing the tourniquet, animals were allowed to recover from the isoflurane anesthesia, then rat tail IVRA was assessed by the tail-flick test. In brief, tail-flick latency (the time from onset of radiant heat to tail-flick response) was measured by a tail-flick analgesia meter (Tail-Flick Unit 37370; Ugo Basile, Comerio, Italy). The intensity of radiant heat (parameter of the analgesia meter) was set at 90%, and cut-off time of radiant heat was set at 18 seconds. The testing area was between the injection site in the distal tail and the tourniquet, in the proximal tail. Baseline tail-flick latency was measured in untreated and saline injected rats. All evaluations were performed by two trained observers blinded to group allocation.

[5] = Bupivacaine concentration in the blood after IVRA and tourniquet release; assay type: in vivo, rat
Experimental: The following were administered as IVRA: saline, 0.5% free bupivacaine, 0.1% free bupivacaine, micellar composition comprising bupivacaine (0.1% bupivacaine), and liposomal composition comprising bupivacaine (0.1% bupivacaine). After releasing the tourniquet, 200 microliters of blood was collected (through the tail vein opposite from that through formulations were injected) at 15 minutes, 30 minutes, 45 minutes, 90 minutes, 150 minutes, 240 minutes, 480 minutes and 720 minutes. Blood was put in ethylenediaminetetraacetic acid (EDTA) containing blood collection tubes (BD, USA). The samples were stored in ice water for 10-15 minutes and then centrifuged at 3,000 rpm at 4° C. for 5 minutes to obtain plasma. The hemocytes were lysed by ultrasonication (Sonics & Materials, Inc., USA) at 4° C. for 2 minutes and centrifuged at 13,000 rpm at 4° C. for 5 minutes to obtain a supernatant. The supernatant was combined with plasma. Next, 50 microliters of the blood samples were mixed with 10 microliters of sodium hydroxide aqueous solution (1 M) and 0.3 mL ethyl ether in an ice-water bath. The mixtures were vigorously vortexed for 2 minutes and centrifuged at 3,000 rpm for […] at room temperature. The organic phase was transferred to a 4 mL glass vial and evaporated to dryness in a 4° C. ice-water bath under vacuum. The residue was dissolved in 200 microliters of water-methanol (50/50, v/v), and was mechanically agitated for 30 seconds. The samples were transferred to clean polypropylene tubes and centrifuged at 13,000 rpm for 10 minutes. The supernatant was analyzed by HPLC.

[6] = tested on: rat tails and organs (heart, liver, spleen, lung, kidney); test: Histology (H&E) of tails and organs 24 hours after IVRA; assay type: in vivo; conditions: 0.5% bupivacaine
Experimental: 24 hours after the IVRA procedures, rats that had been administered saline, free bupivacaine (0.5% bupivacaine), micellar composition comprising bupivacaine (0.1% bupivacaine), and liposomal composition comprising bupivacaine (0.1% bupivacaine) were euthanized. Tails and organs (e.g., heart, liver, spleen, lung, and kidney) were harvested and fixed with 10% formalin. The organs were processed by standard procedures to produce hematoxylin and eosin-stained (H&E stained) slides. The tails were decalcified to remove bones before H&B staining procedures. Similar regions were examined in each organ from different groups. Tissues from healthy rats (no treatment) were used as negative controls.

[7] = 0.4 mL of 0.5% bupivacaine by IVRA, tourniquet time 5 min
[8] = 0.4 mL of 0.5% bupivacaine by IVRA, tourniquet time 10 min
[9] = 0.4 mL of 0.5% bupivacaine by IVRA, tourniquet time 15 min
[10] = 0.4 mL of 0.5% bupivacaine by IVRA, tourniquet time 20 min
[11] = 0.4 mL of 0.5% bupivacaine by IVRA, tourniquet time 30 min
[12] = bupivacaine concentration 0.1% w/v, 0.4 mL, 15 minute tourniquet
[13] = bupivacaine concentration 0.5% w/v, 0.4 mL, 15 minute tourniquet

- Rhd signal in tail sections (fluorescence microscopy) ([1]; four hours after release of the tourniquet): much weaker than at 15 minutes
- fluorescence intensity in the rat tail, % of intensity before tourniquet release [2]: ~50%
Compound: rhodamine [free Rhd]
- Rhd signal in tail sections (fluorescence microscopy) ([1]; 15 minutes after release of the tourniquet): very strong Rhd signals co-localized with blood vessel

Compound: CCCCN1CCCCC1C(=O)Nc1c(C)cccc1C (centres unmarked) [Free bupivacaine, bupivacaine]
- cells alive [3]: 22.1+/−2.4%
- anesthetic effect (tail-flick) ([4]; 0.1% bupivacaine, comparable to saline): did not achieve any anesthetic effect
- Anesthesia Duration [4, 7]: 0 h
- Successful Anesthesia (%) [4, 7]: 0%
- Anesthesia Duration [4, 8]: 0.3 ± 0.5 h
- Successful Anesthesia (%) [4, 8]: 25%
- Anesthesia Duration [4, 9]: 2 h and 2.0 ± 0.6 h
- Successful Anesthesia (%) [4, 9]: 100%
- animals with anesthesia ([4]; 0.4 mL of 0.5% bupivacaine by IVRA, tourniquet time 15 minutes): four of four
- Anesthesia Duration [4, 10]: 1.9 ± 0.5 h
- Successful Anesthesia (%) [4, 10]: 100%
- Anesthesia Duration [4, 11]: 2.0 ± 0.5 h
- Successful Anesthesia (%) [4, 11]: 100%
- Anesthesia Duration [4, 12]: 0 h
- Successful Anesthesia (%) [4, 12]: 0%
- Anesthesia Duration [4, 13]: 2.0 ± 0.6 h
- Successful Anesthesia (%) [4, 13]: 100%
- Anesthesia Duration ([4]; bupivacaine concentration 0.5% w/v, 0.4 mL, 15 minute tourniquet, listed as free bupivacaine): 2.0 ± 0.6 h
- mortality ([5]; 0.5% free bupivacaine by IVRA, rats): none died
- clinical observation after tourniquet release ([5]; rat, in vivo): dyspnea
- time of peak bupivacaine concentration in blood ([5]; rat, in vivo): 45 min
- histology of heart, liver, spleen, lung and kidney (H&E) [6]: no histological abnormalities
- tail myotoxicity (H&E) [6]: no myotoxicity
